Reference: ChEMBL document CHEMBL1126601, “Synthesis of a photoaffinity analog of taxol as an approach to identify the taxol binding site on microtubules” (J Med Chem, 1993)

Tests used:
J774 = test: Drug concentration that inhibits cell division by 50% after 72 hr incubation for murine like macrophage cell line J774.2; assay type: functional; settings: Mus musculus, J774, 72 h; read-out: ED50 (the source's name)
Mus musculus = species on record: Mus musculus; test: Ability to inhibit binding of [3H]taxol was determined; assay type: functional

Question: What does the source list for `CC(=O)O[C@H]1C(=O)[C@@]2(C)C([C@H](CC(=O)c3ccccc3)[C@]3(O)C[C@H](OC(=O)[C@H](O)C(NC(=O)c4ccccc4)c4ccccc4)C(C)=C1C3(C)C)[C@]1(OC(C)=O)CO[C@@H]1C[C@@H]2O` (some centres not stated)?
Answer: EC50 (J774): 50 nM; Ki (Mus musculus): 2000 nM
